ChEMBL document CHEMBL1201862, “PubChem BioAssay data set” (2004)
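Dose response: 5 concentrations. Exposure: 48 h. Format: 96-well plates. Endpoint: linear interpolation; highest concentration if not reached. GI50 marks 50% less growth.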 The source made the active and inactive calls. Cut-off read from the data, not from the text of the source: active = GI50 up to about 1.1 µM and inactive = higher.

Legend:
Experiment in all cases: growth of human tumour cells (NCI), 48 h
786-0 = test system: 786-0
Hs-578T = test system: Hs-578T
DU-145 = test system: DU-145
NCI-H460 = test system: NCI-H460
MDA-MB-435 = test system: MDA-MB-435
ACHN = test system: ACHN
BT-549 = test system: BT-549
SF-295 = test system: SF-295
OVCAR-5 = test system: OVCAR-5
HCT-15 = test system: HCT-15
MCF7 = test system: MCF7
COLO 205 = test system: COLO 205
MDA-MB-231 = test system: MDA-MB-231
SK-MEL-2 = test system: SK-MEL-2
HT-29 = test system: HT-29
KM12 = test system: KM12
HOP-92 = test system: HOP-92
UACC-257 = test system: UACC-257
UO-31 = test system: UO-31
SK-MEL-5 = test system: SK-MEL-5

| Compound | GI50 (786-0) | GI50 (Hs-578T) | GI50 (DU-145) | GI50 (NCI-H460) | GI50 (MDA-MB-435) | GI50 (ACHN) | GI50 (BT-549) | GI50 (SF-295) | GI50 (OVCAR-5) | GI50 (HCT-15) [µM] | GI50 (MCF7) | GI50 (COLO 205) | GI50 (MDA-MB-231) | GI50 (SK-MEL-2) | GI50 (HT-29) | GI50 (KM12) | GI50 (HOP-92) | GI50 (UACC-257) | GI50 (UO-31) | GI50 (SK-MEL-5) |
| --- | --- | --- | --- | --- | --- | --- | --- | --- | --- | --- | --- | --- | --- | --- | --- | --- | --- | --- | --- | --- |
| O=C(c1cccs1)N(C(=S)OCCOc1ccccc1)c1ccccc1 | 25.2 µM (inactive) | 58.6 µM (inactive) | 28.6 µM (inactive) | 34.8 µM (inactive) | 17 µM (inactive) | 27.7 µM (inactive) | 20.8 µM (inactive) | 26.5 µM (inactive) | 28.4 µM (inactive) | 27.4 | 20.2 µM (inactive) | 24.8 µM (inactive) | 24.3 µM (inactive) | 21.3 µM (inactive) | 34 µM (inactive) | 26 µM (inactive) | 18.8 µM (inactive) | 29.4 µM (inactive) | – | – |
| CN(C)c1ccc(/C=C2\Oc3cc(O)ccc3C2=O)cc1 | > 100 µM (inactive) | > 100 µM (inactive) | > 100 µM (inactive) | 80.5 µM (inactive) | 36.9 µM (inactive) | > 100 µM (inactive) | 65.8 µM (inactive) | 30.5 µM (inactive) | – | 44.9 | 80.9 µM (inactive) | > 100 µM (inactive) | 53.1 µM (inactive) | – | – | 61.2 µM (inactive) | – | > 100 µM (inactive) | > 100 µM (inactive) | 80.7 µM (inactive) |
| CC(C)C[C@@H](NC(=O)[C@@H](Cc1cccc2ccccc12)NC(=O)N1CCOCC1)B(O)O | – | 40.5 µM (inactive) | > 100 µM (inactive) | > 100 µM (inactive) | 20.8 µM (inactive) | 66.1 µM (inactive) | 36.3 µM (inactive) | – | 75.3 µM (inactive) | > 100 | – | 48.4 µM (inactive) | 50.5 µM (inactive) | 37 µM (inactive) | 59.4 µM (inactive) | > 100 µM (inactive) | 37.1 µM (inactive) | > 100 µM (inactive) | > 100 µM (inactive) | – |
| COC(=O)n1c(=O)n(-c2ccccc2)c(=O)n1C(=O)Nc1ccccc1 | > 100 µM (inactive) | > 100 µM (inactive) | > 100 µM (inactive) | > 100 µM (inactive) | > 100 µM (inactive) | > 100 µM (inactive) | > 100 µM (inactive) | > 100 µM (inactive) | > 100 µM (inactive) | > 100 | – | > 100 µM (inactive) | > 100 µM (inactive) | > 100 µM (inactive) | > 100 µM (inactive) | > 100 µM (inactive) | > 100 µM (inactive) | > 100 µM (inactive) | > 100 µM (inactive) | > 100 µM (inactive) |
| CCOC(=O)C1CCCC1S(=O)(=O)c1ccc(C)cc1 (configuration not stated) | > 100 µM (inactive) | > 100 µM (inactive) | > 100 µM (inactive) | > 100 µM (inactive) | 79.4 µM (inactive) | > 100 µM (inactive) | > 100 µM (inactive) | > 100 µM (inactive) | > 100 µM (inactive) | > 100 | > 100 µM (inactive) | > 100 µM (inactive) | > 100 µM (inactive) | – | > 100 µM (inactive) | > 100 µM (inactive) | > 100 µM (inactive) | – | > 100 µM (inactive) | > 100 µM (inactive) |
| C[N+](C)(C)CCN(Cc1cccs1)c1ccccn1 | > 100 µM (inactive) | 74.5 µM (inactive) | > 100 µM (inactive) | > 100 µM (inactive) | > 100 µM (inactive) | > 100 µM (inactive) | 47.5 µM (inactive) | > 100 µM (inactive) | – | > 100 | > 100 µM (inactive) | 35.2 µM (inactive) | > 100 µM (inactive) | > 100 µM (inactive) | – | > 100 µM (inactive) | 3.6 µM (inactive) | > 100 µM (inactive) | > 100 µM (inactive) | > 100 µM (inactive) |
| COc1cc2c(cc1OC)CCN=C2 | – | > 100 µM (inactive) | > 100 µM (inactive) | 66.5 µM (inactive) | > 100 µM (inactive) | – | > 100 µM (inactive) | > 100 µM (inactive) | > 100 µM (inactive) | > 100 | > 100 µM (inactive) | > 100 µM (inactive) | > 100 µM (inactive) | > 100 µM (inactive) | > 100 µM (inactive) | > 100 µM (inactive) | > 100 µM (inactive) | > 100 µM (inactive) | > 100 µM (inactive) | > 100 µM (inactive) |
| C/C=C/C=C/c1nc(C#N)c(N)o1 | > 100 µM (inactive) | > 100 µM (inactive) | > 100 µM (inactive) | – | > 100 µM (inactive) | > 100 µM (inactive) | > 100 µM (inactive) | > 100 µM (inactive) | > 100 µM (inactive) | > 100 | > 100 µM (inactive) | > 100 µM (inactive) | > 100 µM (inactive) | > 100 µM (inactive) | > 100 µM (inactive) | – | > 100 µM (inactive) | > 100 µM (inactive) | 18.3 µM (inactive) | – |
| [O-][S@@+]1c2ccc3ccccc3c2N[C@@H]2[C@H]1[C@H]1C=C[C@@H]2C1 | 64.3 µM (inactive) | 30.1 µM (inactive) | 46.9 µM (inactive) | 37.6 µM (inactive) | 24.9 µM (inactive) | > 100 µM (inactive) | 32.4 µM (inactive) | 40.5 µM (inactive) | > 100 µM (inactive) | 33.1 | 26.1 µM (inactive) | 46.6 µM (inactive) | 32.3 µM (inactive) | 37.4 µM (inactive) | 34.9 µM (inactive) | 31.1 µM (inactive) | 38.4 µM (inactive) | 56.6 µM (inactive) | 64.4 µM (inactive) | 28 µM (inactive) |
| CSc1nc(Cl)c2c(n1)Sc1ncnn1C2O (configuration not stated) | 2.66 µM (inactive) | 5.09 µM (inactive) | 7.08 µM (inactive) | 21 µM (inactive) | 4.57 µM (inactive) | 4.29 µM (inactive) | 11.4 µM (inactive) | – | 17.7 µM (inactive) | 4.37 | 3.83 µM (inactive) | 0.843 µM (active) | 16.1 µM (inactive) | 17.4 µM (inactive) | 12.9 µM (inactive) | – | 12.6 µM (inactive) | 19.5 µM (inactive) | 2.55 µM (inactive) | – |
| COc1cccc(C2c3cc4c(cc3OC(O)C2C)OCO4)c1OC (configuration not stated) | 3.29 µM (inactive) | 4.46 µM (inactive) | 2.98 µM (inactive) | 3.71 µM (inactive) | 5.97 µM (inactive) | 3.18 µM (inactive) | 10.1 µM (inactive) | 3.26 µM (inactive) | 16.2 µM (inactive) | 2.1 | 5.28 µM (inactive) | 6.11 µM (inactive) | 14.2 µM (inactive) | 5.2 µM (inactive) | 3.66 µM (inactive) | 5.04 µM (inactive) | 1.66 µM (inactive) | 7.18 µM (inactive) | – | 7.14 µM (inactive) |
| CCOC(=O)c1nnsc1NC(=O)NCCCCCCn1c(=O)n(CCCCCCNC(=O)Nc2snnc2C(=O)OCC)c(=O)n(CCCCCCNC(=O)Nc2snnc2C(=O)OCC)c1=O | 16.7 µM (inactive) | 13.7 µM (inactive) | 49.3 µM (inactive) | 21.5 µM (inactive) | 63.7 µM (inactive) | 47 µM (inactive) | 33 µM (inactive) | 16.9 µM (inactive) | > 100 µM (inactive) | > 100 | 97.3 µM (inactive) | > 100 µM (inactive) | 15.2 µM (inactive) | > 100 µM (inactive) | > 100 µM (inactive) | 93.3 µM (inactive) | – | 85.3 µM (inactive) | 45.4 µM (inactive) | 71.1 µM (inactive) |
| Cc1nc2ccc(NC(=S)Nc3ccccc3)cc2c(=O)n1-c1ccccc1 | > 100 µM (inactive) | > 100 µM (inactive) | > 100 µM (inactive) | 24.2 µM (inactive) | > 100 µM (inactive) | > 100 µM (inactive) | > 100 µM (inactive) | > 100 µM (inactive) | > 100 µM (inactive) | > 100 | > 100 µM (inactive) | 80.4 µM (inactive) | > 100 µM (inactive) | 16.6 µM (inactive) | > 100 µM (inactive) | > 100 µM (inactive) | – | > 100 µM (inactive) | > 100 µM (inactive) | 51.3 µM (inactive) |
| CC1(O)C(=O)OC2CC([C@]3(O)CCC4[C@@H]5C[C@H]6O[C@]67[C@@H](O)C=CC(=O)[C@]7(C)C5CC[C@@]43C)C1(C)C2 (some centres not stated) | 12.9 µM (inactive) | 26.3 µM (inactive) | 26.5 µM (inactive) | 30.5 µM (inactive) | 15.7 µM (inactive) | 18.8 µM (inactive) | 6.68 µM (inactive) | 34.6 µM (inactive) | 23.8 µM (inactive) | 17.9 | – | 6.93 µM (inactive) | 16.7 µM (inactive) | 13.8 µM (inactive) | 17.1 µM (inactive) | 27 µM (inactive) | 3.44 µM (inactive) | 11.5 µM (inactive) | 22.9 µM (inactive) | 16.9 µM (inactive) |
| CCCCCCNC(=O)c1cc(C#Cc2cc(OC)ccc2OC)ccc1OC | > 100 µM (inactive) | > 100 µM (inactive) | – | 8.73 µM (inactive) | 2.75 µM (inactive) | > 100 µM (inactive) | 18.9 µM (inactive) | 51.9 µM (inactive) | > 100 µM (inactive) | 7.48 | > 100 µM (inactive) | 55.3 µM (inactive) | > 100 µM (inactive) | > 100 µM (inactive) | 7.53 µM (inactive) | > 100 µM (inactive) | 9.77 µM (inactive) | > 100 µM (inactive) | 62.1 µM (inactive) | 19.6 µM (inactive) |
